Reference: US12410124B2 (priority 2019, dated 2025)
Read-outs that look alike come from different tables or passages of the source.

How the values were obtained:
substantia nigra pp38 = test: Substantia nigra pp38 protein expression in MPTP Parkinson's disease model mouse (immunofluorescence); assay type: in vivo; conditions: percentage of mean intensity of blank control group, gavage 21 days after MPTP modeling
Description: (§1) Neurotoxins can be used to establish PD animal models. Currently, 1-methyl-4-phenyl-1,2,3,6-tetrahydropyridine (MPTP) is the sole synthetic toxin which is recognized to induce PD symptoms in human and non-human primates and in mice. Using MPTP subacute modeling method, C57BL/6J male mice were intraperitoneally injected with MPTP 30 mg/kg, once a day for 5 consecutive days. The experiment animals were divided into blank control group, MPTP model group, and compound treatment group. For the […] compound treatment group, the compound was administrated by gavage for 21 consecutive days after the completion of modeling; for the MPTP model group, the normal saline was administrated by gavage for 21 consecutive days after the completion of modeling; and for the blank control group, the normal saline was first intraperitoneally injected for 5 days, and then administrated by gavage for 21 days.
The p38 mitogen-activated protein kinase (p38 MAPK) is expressed in both neurons and glial cells, and is the intersection point of neuron-glial cell network information regulations. The activation of p38 signaling pathway is an important initiator of neuronal degeneration, which continuously induces the apoptosis of dopaminergic neurons in multiple ways. It has become a research hotspot for the treatment of PD. Studies have shown that the protective mechanism of CAPE against the death of primary cultured cerebellar granule neurons induced by glutamate lies in inhibiting the activation of p38 phosphorylation and in turn inhibiting the activation of the caspase 3 apoptotic pathway to prevent neuronal apoptosis. Therefore, the MPTP-induced PD mouse model can be used to investigate the inhibitory effect of the target compounds on the activation of p38 phosphorylation on the overall animal level.
(§2) Half of experiment mice in each group were taken to separate the midbrain after perfusion and fixation. The tissue was trimmed, and the substantia nigra-striatum area was taken to prepare paraffin sections. The double immunofluorescence staining for TH and phosphorylated p38 was performed to observe the coexpression of TH and phosphorylated p38, for the statistics of the change in the phosphorylated p38 protein expression. The experiment included blank control group, MPTP model group, positive control group (caffeic acid phenethyl ester, CAPE), prototype control group (styryl sulfone compounds 3B, 3C, 3D, and 3G, whose structures are shown as above), and target compound group.

hippocampus CD11b = test: Number of hippocampus microglial cells with CD11b positive expression in MPTP Parkinson's disease model mouse (immunohistochemistry); assay type: in vivo; conditions: hippocampus, MPTP Parkinson's disease model mouse, immunohistochemistry
Description: as §1
(§3) Neuron-glial cell network homeostasis disorder is an important factor for the selective and progressive death of substantia nigra dopaminergic neurons in PD. In the neurotoxic effect of MPTP, the excessive activations of microglial cells and astrocytes produce a variety of inflammatory cytokines and reactive oxygen species (ROS). These inflammatory factors and ROS amplify their respective toxicities and mediate malignant feedback loop, causing a cascade inflammation response and aggravating the pathological process of PD. CD11b and GFAP are the marker proteins for activations of microglial cells and astrocytes, respectively. Therefore, the effect of the target compounds on the activations of the microglial cells and astrocytes in the substantia nigra, hippocampus, and midbrain areas of MPTP-induced PD mice can be investigated, to explore the mechanism of the anti-PD effect of the target compounds by inhibiting the neuroinflammation.
as §2, with “hippocampus” for “substantia nigra-striatum”, “CD11b immunohistochemical” for “double immunofluorescence”, “staining” for “staining for TH and phosphorylated p38”, “performed” for “performed to observe the coexpression of TH and phosphorylated p38,”, “number of microglial cells with CD11b positive” for “phosphorylated p38 protein”

substantia nigra CD11b = test: Number of substantia nigra microglial cells with CD11b positive expression in MPTP Parkinson's disease model mouse (immunohistochemistry); assay type: in vivo; conditions: substantia nigra, MPTP Parkinson's disease model mouse, immunohistochemistry
Description: as §1, §3
as §2, with “nigra” for “nigra-striatum”, “CD11b immunohistochemical” for “double immunofluorescence”, “staining” for “staining for TH and phosphorylated p38”, “performed” for “performed to observe the coexpression of TH and phosphorylated p38,”, “number of microglial cells with CD11b positive” for “phosphorylated p38 protein”

[1] = biological target: acetylcholinesterase (AchE) (Homo sapiens, UniProt P22303); test: biochemical
Description: The modified Ellman method was used to determine the inhibitory activity on acetylcholinesterase. The principle lies in that acetylthiocholine iodide is decomposed under the action of acetylcholinesterase (AchE) to generate thiocholine. The thiocholine is quickly reacted with DTNB as the colour-developing agent to generate a yellow substance with light absorption at 405 nm. To a 96-well microplate, 50 μl of enzyme reaction buffer, 125 μl of DTNB (3 mM), 25 μl of test sample or positive control drug, and 25 μl of AchE (0.2 U/ml) were successively added. After incubation at room temperature for 5 min, 25 μl of ATCI (15 mM) was added. After incubation at room temperature for 8 min, the absorbance value was determined at 405 nm with a microplate reader. A blank control group without enzyme (25 μl PBS instead of the sample to be tested) was also established.

HO-1 = test: Midbrain HO-1 expression in MPTP Parkinson's disease model mouse (western blot); assay type: in vivo; conditions: midbrain, MPTP Parkinson's disease model mouse, western blot
Description: as §1
Oxidative stress is an important pathogenic mechanism of PD. Dopaminergic neurons are more sensitive to oxidative stress and are more susceptible to oxidative stress damage. Heme oxygenase (HO-1), a phase II enzyme, is also a well-known antioxidase. It plays an important protective role by catalyzing the conversion of free radicals into non-toxic products and increasing their water solubility to facilitate the elimination of free radicals, and maintain the redox balance in the body. It plays an important role in the process of protecting cells against oxidative stress damage. The activation of p38 protein phosphorylation has a negative regulatory effect on phase II enzymes. […] Using HO-1 as an indicator, the inhibitory effect of the target compounds on MPTP-induced oxidative stress damage in PD mice can be investigated.
HO-1 is expressed in astrocytes, microglial cells, and neurons. The total proteins of the midbrain tissue of mice in each experiment group were extracted, to determine the expression of phase II enzyme HO-1 in the midbrain of mice by western blot using GAPDH as the internal reference. The experiment included blank control group, MPTP model group, positive control group (caffeic acid phenethyl ester, CAPE), prototype control group (styryl sulfone compounds 3B, 3C, 3D, and 3G, whose structures are shown as above), and target compound group.

[2] = acetylcholinesterase, modified Ellman method, read-out: IC50

Sequence of acetylcholinesterase (AchE) (P22303 32-614, species assumed): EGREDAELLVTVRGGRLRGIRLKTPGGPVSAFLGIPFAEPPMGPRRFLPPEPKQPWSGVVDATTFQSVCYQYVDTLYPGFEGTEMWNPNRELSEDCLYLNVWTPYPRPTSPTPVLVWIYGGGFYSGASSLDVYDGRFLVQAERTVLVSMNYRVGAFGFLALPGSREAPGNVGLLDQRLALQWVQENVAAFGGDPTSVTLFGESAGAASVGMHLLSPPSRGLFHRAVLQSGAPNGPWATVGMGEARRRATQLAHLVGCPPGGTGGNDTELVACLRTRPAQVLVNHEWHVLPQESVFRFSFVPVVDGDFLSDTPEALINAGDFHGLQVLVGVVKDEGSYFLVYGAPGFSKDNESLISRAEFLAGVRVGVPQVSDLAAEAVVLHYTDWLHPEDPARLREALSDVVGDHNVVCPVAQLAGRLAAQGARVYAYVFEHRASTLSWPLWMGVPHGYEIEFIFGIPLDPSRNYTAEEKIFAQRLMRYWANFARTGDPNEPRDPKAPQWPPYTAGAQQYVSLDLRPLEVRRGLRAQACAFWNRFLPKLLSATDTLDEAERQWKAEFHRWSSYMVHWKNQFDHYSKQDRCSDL

Molecule	Expression (Immunofluorescence intensity %) (substantia nigra pp38)	Positive cell number (microglial cells with CD11b positive expression) (hippocampus CD11b)	Positive cell number (microglial cells with CD11b positive expression) (substantia nigra CD11b)	IC50 [1, 2]	Expression (HO-1/GAPDH) (HO-1)	IC50 [1]	IC50 ([1]; read-out: IC50 values (acetylcholinesterase))
CN(C)c1ccc(CC(=O)Oc2cc(/C=C/S(=O)(=O)C(Br)c3ccc(Cc4ccc(N(C)C)cc4)cc3)ccc2OC(=O)N2CCCC2C(F)(F)F)cc1 (centres unmarked) [Compound M1-5]	87.45 ± 11.05%	11 ± 1	28 ± 3	31.3 ± 4.63 µM	0.96 ± 0.08	–	–
Cc1ccc(N2CCN(C(=O)Oc3ccc(/C=C/S(=O)(=O)CCCC(c4ccc(OC(=O)CN(C)C)cc4)N(C)C)cc3OC(=O)N(C)c3ccccc3)CC2)cc1 (centres unmarked) [Compound P1-1, (E)-4-{2-[4-(dimethylamino)-4-(4-(N,N-dimethylglycyloxy)phenyl)butylsulfonyl]ethenyl}-2-(N-methyl-N-phenylcarbamoyloxy)phenyl-4-(p-methylphenyl)piperazine-1-carboxylate]	99.55 ± 8.46%	7 ± 2	26 ± 3	–	1.17 ± 0.05	11.3 ± 1.48 µM	–
COc1ccc(CC(=O)Oc2ccc(C(N)CS(=O)(=O)/C=C/c3ccc(OC(C)(C)C)c(OC(=O)N(C)c4ccccc4)c3)cc2)cc1 (centres unmarked) [Compound P1-3, (E)-4-{1-amino-2-[4-t-butoxy-3-(N-methyl-N-phenylcarbamoyloxy)styrylsulfonyl]ethyl}phenyl-2-(4-methoxyphenyl)acetate]	81.90 ± 9.52%	16 ± 2	31 ± 4	–	0.77 ± 0.10	14.4 ± 2.04 µM	–
COc1ccc(CC(=O)Oc2ccc(/C(C)=C/S(=O)(=O)/C=C/c3ccc(OC(=O)N(C)C)c(O[Si](C)(C)CCl)c3)cc2)cc1 [Compound P1-7, 4-{(E)-1-[(E)-3-(chloromethyldimethylsiloxy)-4-(N,N-dimethylcarbamoyloxy)styrylsulfonyl]prop-1-en-2-yl}phenyl-2-(4-methoxyphenyl) acetate]	77.29 ± 13.06%	8 ± 2	15 ± 2	–	0.71 ± 0.09	21.4 ± 2.07 µM	–
CC[Si](CC)(Oc1ccc(C(Cl)S(=O)(=O)/C=C/c2ccc(OC(=O)N3CC(C)OC(C)C3)c(OC(=O)c3cccc(Cl)c3OC)c2)cc1)c1ccccc1 (centres unmarked) [Compound R1-5, (E)-4-{2-[4-(diethylphenylsiloxy)phenylchloromesyl]ethenyl}-2-(3-chloro-2-methoxybenzoyloxy)phenyl-2,6-dimethylmorpholine-4-carboxylate]	101.93 ± 7.44%	17 ± 2	39 ± 6	27.5 ± 3.49 µM	0.87 ± 0.06	–	–
Cc1ccc(S(=O)(=O)Oc2ccc(CS(=O)(=O)/C=C/c3ccc(OS(=O)(=O)c4ccc(C)cc4)c(OC(=O)N(C)S(=O)(=O)c4ccc(C)cc4)c3)cc2)cc1 [Compound S6-6, (E)-2-(N-methyl-N-p-tosylcarbamoyloxy)-4-{2-[(4-p-tosyloxyphenyl)mesyl]ethenyl}phenyl p-toluenesulfonate]	105.30 ± 10.08%	9 ± 2	19 ± 2	–	1.08 ± 0.11	15.6 ± 3.07 µM	–
O=C(/C=C/c1ccc(O)c(O)c1)OCCc1ccccc1 [Positive control group, caffeic acid phenethyl ester, reference compound]	139.72 ± 25.32%	24 ± 2	49 ± 7	> 100 µM	0.52 ± 0.07	–	> 100 µM
(E)-2-[(methylamino)methoxy]-4-{2-[1-(4′-nitro-[1,1′-biphenyl]-4-yl)ethylsulfonyl]ethenyl}phenylcarbamate [Compound M1-3]	100.22 ± 14.12%	12 ± 2	33 ± 5	17.6 ± 2.19 µM	0.80 ± 0.09	–	–
